The values below come from PubChem BioAssay (NCI).

Molecules are shown by their SMILES. Values joined by “and” are separate entries in the source; they are usually repeats but may differ in a detail not shown here. Equal values may be shown once.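 96-well plates; 48 h exposure; 5 concentrations. Endpoints by linear interpolation between flanking doses. Not reached: highest tested concentration assigned. Here, GI50 denotes the concentration required for 50% inhibition of growth. TGI: total growth inhibition.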

What all share (experiment): DTP human tumour cell line panel, 48 h
The subject of assay [1] is ACHN renal.
Assay [2] concerns HCT-15 colon.
Assay [3] has as its system HOP-92 NSCLC.
Assay [4] has as its system HT29 colon.
Assay [5] relates to MDA-N.
Assay [6] relates to NCI/ADR-RES ovarian.
In assay [7] the test system is SK-MEL-28 melanoma.
Assay [8] concerns TK-10 renal.
Assay [9] deals with UACC-257 melanoma.
The test system of assay [10] is SK-MEL-5 melanoma.

Turning to `O=CN1CCN(c2ccc3ccc(=O)[nH]c3n2)CC1`, the TGI in assay [1], in [2], in [3], in assay [4], in assay [5] and in [6] was > 100 µM throughout. Besides, the TGI in assay [7], in [8] and in assay [9] was > 100 µM in each case.
`COc1cc(/C=C(\C)[N+](=O)[O-])cc(OC)c1`: the TGI was 30.3 µM in assay [1]; 29.9 µM in assay [2]; 28.2 µM in [3]; 38.5 µM in assay [4]; 17.5 µM in assay [5]; 39.8 µM in assay [6]. The TGI came out at 33.2 µM in [7], 31.7 µM in [10], 26.1 µM in assay [8] and 31 µM in [9].
In the case of `OCCc1ccsc1-c1sc(-c2cc(CCO)c(-c3sc(-c4cc(CCO)c(-c5sccc5CCO)s4)cc3CCO)s2)cc1CCO`, the TGI is 3 µM in assay [1]; 3.52 µM in assay [2]; 2.89 µM in [3]; 3.99 µM in [4]; 4.29 µM in assay [5]; 4.14 µM in [6]. Also, the TGI in [7] worked out at 3.27 µM; in assay [10] it was 3.01 µM; in assay [8], 3.15 µM; in [9], 2.9 µM.
For the molecule `CC(=O)OC1CCn2c1nc1cc([N+](=O)[O-])c(C)cc12` (stereo not given), the TGI in assay [1], in [2], in assay [3], in assay [4], in assay [5] and in assay [6] was > 100 µM in each case. For the same molecule, the TGI in assay [7], in assay [10] and in assay [9] was > 100 µM in each case.
In the case of `C[N+]1(C)CCCC(C#N)(c2ccccc2)CC1` (stereo not given), the TGI in assay [1], in assay [2], in [3], in [4], in assay [5] and in [6] was > 100 µM throughout. The total growth inhibition concentration (TGI) in assay [7], in assay [10], in assay [8] and in assay [9] was > 100 µM each time.
For the molecule `CNC(=O)[C@H](Cc1ccccc1)NC(=O)N(CCC#N)CCN(C(=O)N[C@@H](Cc1ccccc1)C(=O)OC)c1ccccc1`, the TGI in assay [1], in [2], in assay [3], in assay [4], in [5] and in [6] was > 100 µM throughout. Further, the total growth inhibition concentration (TGI) in assay [7], in [10], in [8] and in [9] was > 100 µM each time.
Regarding `CCOP1(=O)CC(C)=C(Cl)C(OC)C1` (stereo not given), the TGI in assay [1], in [2], in [3], in assay [4], in assay [5] and in assay [6] was > 100 µM each time. The TGI in assay [7], in assay [10], in assay [8] and in [9] was > 100 µM each time.
As for `C[C@]12CC[C@H]3[C@@H](CC=C4C[C@@H](O)CC[C@@]43C)[C@@H]1C/C(=C\c1cccnc1)[C@@H]2O`, the TGI in assay [1] was 32.2 µM; in assay [2], > 100 µM; in [3] it was 59.6 µM; in assay [4] it was > 100 µM; in assay [5] it was > 100 µM; in assay [6], > 100 µM. Besides, the TGI in assay [7] was > 100 µM; in [8] it was 66.8 µM; in assay [9], > 100 µM.
In the case of `CC(C)c1cc(=O)[nH]c2cc(N)ccc12`, the TGI in assay [1], in assay [2], in assay [3], in assay [4], in assay [5] and in [6] was > 100 µM each time. For the same molecule, the TGI in assay [7], in assay [10] and in [9] was > 100 µM in each case.
Regarding `O/N=C\c1c2c(cc3c1CCC3)CCC2`, the TGI in assay [1], in assay [2], in [4], in [5], in assay [6] and in [7] was > 100 µM in each case. For the same molecule, the TGI in assay [10], in [8] and in [9] was > 100 µM each time.
With `O=C(O)CN1C(=O)c2ccc(NC(=O)C(=O)O)cc2S1(=O)=O`, the TGI in assay [1], in assay [2], in assay [3], in [5], in [6] and in assay [7] was > 100 µM each time. The TGI in assay [10], in assay [8] and in [9] was > 100 µM in each case.
As for `Nc1cccc(-c2cc(=O)c3cc4c(cc3[nH]2)OCO4)c1`, the TGI was > 100 µM in assay [1]; 21.8 µM in assay [2]; > 100 µM in assay [3]; 4.25 µM in assay [4]; 0.474 µM in [5]; 2.95 µM in assay [6]. For the same molecule, the TGI in assay [7], in assay [8] and in [9] was > 100 µM each time.
Turning to `ClC1=NSSC1(Cl)Cl`, the TGI was 39.5 µM in assay [1]; 60 µM in assay [2]; > 100 µM in assay [4]; 62.1 µM in [5]; > 100 µM in [6]; 28.8 µM in [10]. Also, in [9], the TGI was > 100 µM.
For `CC(=O)Oc1ccc2cc(Oc3cc(Cl)c(Cl)cc3Cl)c(=O)oc2c1`, the TGI was found to be 50.5 µM in assay [1]; 26.3 µM in [2]; 48 µM in assay [3]; 30.5 µM in assay [4]; 30.6 µM in [5]; 59.6 µM in [7]. The TGI worked out at 24.1 µM in [10], 74.5 µM in assay [8] and 50.6 µM in assay [9].
Take `CCCC(=O)Nc1cc(C(=O)N2C[C@H]3C[C@@]34C2=CC(=O)c2[nH]cc(C)c24)n(COC)c1`: the GI50 in [1] is 0.0888 µM; in assay [2], 0.242 µM; in [3] it was 0.291 µM; in assay [4] it was 0.296 µM; in [5] it was 0.164 µM; in assay [6], 1.17 µM. For the same molecule, the TGI in assay [1] was 2.5 µM and 0.342 µM; in assay [2] it was 17.8 µM and 2.31 µM; in [3] it was 2.64 µM and 0.728 µM; in assay [4] it was 4.47 µM and 20.5 µM; in [5], 1.59 µM and 0.316 µM; in [6], 2.73 µM and 4.64 µM. The TGI in [7] was determined as 1.28 µM; in assay [8], 2.87 µM; in [9] it was 0.833 µM.
`CCOC(=O)Cc1c(C(=O)OCC)[n+](=O)c2cc(Cl)c(Cl)cc2n1[O-]`: the TGI turned out to be 3.38 µM in assay [1]; 5.2 µM in assay [4]; 11.9 µM in [5]; 8.61 µM in assay [6]; 17.4 µM in [7]; 3.04 µM in [10]. For the same molecule, the TGI in assay [8] was 2.83 µM; in assay [9] it was 5.51 µM.
In the case of `COC(=O)CN1CCN(c2cccc3c2CCCC3)CC1`, the TGI was > 100 µM in [1]; > 100 µM in assay [2]; 15.4 µM in assay [3]; 65.8 µM in assay [4]; > 100 µM in assay [5]; > 100 µM in assay [6]. Further, the TGI in assay [10] was 60 µM; in assay [8], > 100 µM; in assay [9], > 100 µM.
As for `COC(=O)[C@@H]1c2c(oc3cc(CO)cc(O)c3c2=O)C=C[C@H]1O`, the total growth inhibition concentration (TGI) came to 9.48 µM in [2]; 22.4 µM in [3]; 14.2 µM in assay [4]; 18.9 µM in [5]; 47.5 µM in [6]; 18.1 µM in assay [7]. Moreover, the TGI in assay [10] was determined as 28.5 µM; in [8] it was 6.8 µM; in [9], 21.5 µM.
On to `COC(=O)/C=C(C)/C=C\COC1CCCCO1` (stereo not given), for which the TGI in [1], in [2], in [5], in assay [6], in assay [7] and in [10] was > 100 µM throughout. Besides, the TGI in [8] and in assay [9] was > 100 µM in each case.
Regarding `C[N+](C)(CCNc1ccc(NCC[N+](C)(C)Cc2ccc([N+](=O)[O-])cc2)c2c1C(=O)c1c(O)ccc(O)c1C2=O)Cc1ccc([N+](=O)[O-])cc1`, the TGI in assay [1], in assay [2], in assay [4], in assay [5], in assay [6] and in [7] was > 50 µM throughout. For the same molecule, the TGI in [10], in [8] and in [9] was > 50 µM throughout.
As to `COC1OC2COC(=O)c3cc(O)c(O)c(O)c3-c3c(cc(O)c(O)c3O)C(=O)OC2C(O)C1O` (stereo not given), the concentration for total growth inhibition (TGI) was > 100 µM in assay [1]; > 100 µM in assay [2]; > 100 µM in assay [4]; 59.2 µM in assay [5]; > 100 µM in assay [6]; > 100 µM in [7]. Further, the TGI in assay [10], in [8] and in [9] was > 100 µM throughout.
Consider `O=C1Cc2cc3ccccc3nc2-c2ccccc2N1`, for which the TGI in assay [1], in [2], in assay [3], in assay [4], in [6] and in assay [7] was > 100 µM throughout. The TGI in assay [10], in assay [8] and in assay [9] was > 100 µM in each case.
Regarding `CCOC(=O)N1c2ccccc2C(C)=CC(C)C1C` (stereo not given), the TGI in assay [1] was > 100 µM; in assay [2], > 100 µM; in [4] it was 40.3 µM; in assay [5], 27.3 µM; in assay [6], > 100 µM; in [7], > 100 µM. Moreover, the TGI in [10] worked out at 39.6 µM; in assay [8], 51 µM; in assay [9] it was 88.5 µM.
For `O=C(NNC(=O)c1ccco1)c1ccco1`, the TGI in [2], in assay [4], in assay [5], in [6], in [7] and in assay [10] was > 100 µM in each case. Further, the TGI in assay [8] and in assay [9] was > 100 µM in each case.
Consider `Cc1c(C#N)c2nnn(-c3cccc(Cl)c3)c(=O)n2c1-c1ccccc1`, for which the total growth inhibition concentration (TGI) is > 100 µM in assay [1]; > 100 µM in [2]; > 100 µM in [3]; 9.18 µM in assay [4]; > 100 µM in assay [6]; > 100 µM in assay [7]. In addition, the TGI in assay [10] was 19.2 µM; in assay [8], > 100 µM; in assay [9] it was > 100 µM.
For `CSc1cc(Cl)c(C)cc1S(=O)(=O)NC(=O)NNc1ccc(C)cc1`, the TGI in assay [1], in assay [2], in [4], in assay [5], in assay [6] and in assay [7] was > 100 µM throughout. Also, the TGI in assay [10] was > 100 µM.
For `S=C(NCc1ccccn1)N/N=C/c1ccccn1`, the TGI in [1] is 1.1 µM; in assay [2], > 100 µM; in assay [4], > 100 µM; in assay [5], > 100 µM; in [6] it was > 100 µM; in assay [7], > 100 µM. The TGI in assay [10] was 1.5 µM; in [8], > 100 µM; in assay [9], < 0.01 µM.
As to `O=C(Nc1cccc(-n2ccc3c(NC(=O)c4ccccc4)ncnc32)c1)Nc1ccc(Cl)c(C(F)(F)F)c1`, the GI50 in [1] is 1.59 µM; in assay [2] it was 2.51 µM; in assay [3] it was 0.556 µM; in assay [4], 1.87 µM; in assay [6], 3.73 µM; in [7], 2.75 µM. Moreover, the GI50 in [10] is 2.2 µM; in assay [8], 2.14 µM; in [9], 2.67 µM. Also, the TGI stood at 7.38 µM in [1]; 10.2 µM in assay [2]; 4.31 µM in assay [3]; 7.87 µM in assay [4]; 32 µM in [6]; 9.44 µM in assay [7]. Moreover, the TGI in assay [10] was 8.16 µM; in assay [8] it was 7.75 µM; in [9], 8.43 µM.
